Data as given in US20210070748A1, “INHIBITORS OF BRUTONS TYROSINE KINASE” (Pharmacyclics LLC, priority 2015, published 2021).
Where two headings read alike, the source gives them in different places.

Legend:
Assay type in all cases: biochemical
[1] = target: T1, TEC (Homo sapiens, UniProt P42680); test: Inhibition of a panel of kinases, in vitro HotSpot kinase assay: TEC; settings: for IC50: 1 μM ATP; for TEC* IC50 relative to Btk IC50 value: fold relative to Btk IC50 value
T1 sequence (P42680 1-631): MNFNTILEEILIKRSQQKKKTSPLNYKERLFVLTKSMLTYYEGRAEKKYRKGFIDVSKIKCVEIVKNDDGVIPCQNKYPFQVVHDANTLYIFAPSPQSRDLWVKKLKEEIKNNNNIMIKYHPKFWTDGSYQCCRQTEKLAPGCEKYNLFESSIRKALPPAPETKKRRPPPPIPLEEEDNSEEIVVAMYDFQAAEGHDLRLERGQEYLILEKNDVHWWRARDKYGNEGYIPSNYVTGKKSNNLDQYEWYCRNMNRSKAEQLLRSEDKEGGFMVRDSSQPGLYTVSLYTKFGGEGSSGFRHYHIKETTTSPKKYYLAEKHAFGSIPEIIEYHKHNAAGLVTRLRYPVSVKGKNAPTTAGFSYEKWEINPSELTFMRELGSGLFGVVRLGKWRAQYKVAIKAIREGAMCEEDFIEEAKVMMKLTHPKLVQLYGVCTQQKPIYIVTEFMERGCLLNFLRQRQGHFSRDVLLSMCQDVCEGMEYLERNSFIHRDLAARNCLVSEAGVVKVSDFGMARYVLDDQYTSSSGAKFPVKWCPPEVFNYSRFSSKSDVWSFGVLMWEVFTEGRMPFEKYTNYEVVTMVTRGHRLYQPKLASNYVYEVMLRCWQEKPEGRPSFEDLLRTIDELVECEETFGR
Description: (§1) The degree of inhibition of a panel of kinases is determined using the in vitro HotSpot kinase assay (purified enzymes, ^33P-ATP, an appropriate substrate and 1 μM ATP).

[2] = target: SRC (Homo sapiens, UniProt P12931); test: Inhibition of a panel of kinases, in vitro HotSpot kinase assay: SRC; settings: for IC50: 1 μM ATP; for SRC* IC50 relative to Btk IC50 value: fold relative to Btk IC50 value
Chain of SRC (P12931 whole entry): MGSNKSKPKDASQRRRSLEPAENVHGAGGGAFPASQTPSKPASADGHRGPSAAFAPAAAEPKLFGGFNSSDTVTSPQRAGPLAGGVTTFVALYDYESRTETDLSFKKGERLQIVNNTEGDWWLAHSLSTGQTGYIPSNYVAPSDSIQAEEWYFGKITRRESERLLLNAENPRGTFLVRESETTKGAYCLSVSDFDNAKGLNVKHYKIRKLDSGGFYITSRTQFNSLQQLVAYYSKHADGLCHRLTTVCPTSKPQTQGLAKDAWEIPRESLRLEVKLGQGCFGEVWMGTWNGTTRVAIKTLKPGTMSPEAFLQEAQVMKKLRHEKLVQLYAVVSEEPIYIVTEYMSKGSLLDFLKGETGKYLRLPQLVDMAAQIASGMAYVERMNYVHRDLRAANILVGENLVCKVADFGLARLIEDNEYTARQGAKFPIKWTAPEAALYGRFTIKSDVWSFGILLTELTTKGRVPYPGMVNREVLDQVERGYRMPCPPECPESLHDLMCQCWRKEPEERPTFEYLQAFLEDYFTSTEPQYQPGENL
Description: as §1

[3] = target: T2, BTK-WT (Homo sapiens, UniProt Q06187); test: Btk in vitro inhibitory activity (one of Method A TR-FRET, Method B electrophoretic mobility shift, Method C radiometric filter binding)
T2 construct: purified from insect cells as a full-length construct containing an N-terminal 6X-His tag; His6 (N); made in house; host or cells: insect cells (baculovirus Sf21 in Method B)
T2 sequence (Q06187 whole entry): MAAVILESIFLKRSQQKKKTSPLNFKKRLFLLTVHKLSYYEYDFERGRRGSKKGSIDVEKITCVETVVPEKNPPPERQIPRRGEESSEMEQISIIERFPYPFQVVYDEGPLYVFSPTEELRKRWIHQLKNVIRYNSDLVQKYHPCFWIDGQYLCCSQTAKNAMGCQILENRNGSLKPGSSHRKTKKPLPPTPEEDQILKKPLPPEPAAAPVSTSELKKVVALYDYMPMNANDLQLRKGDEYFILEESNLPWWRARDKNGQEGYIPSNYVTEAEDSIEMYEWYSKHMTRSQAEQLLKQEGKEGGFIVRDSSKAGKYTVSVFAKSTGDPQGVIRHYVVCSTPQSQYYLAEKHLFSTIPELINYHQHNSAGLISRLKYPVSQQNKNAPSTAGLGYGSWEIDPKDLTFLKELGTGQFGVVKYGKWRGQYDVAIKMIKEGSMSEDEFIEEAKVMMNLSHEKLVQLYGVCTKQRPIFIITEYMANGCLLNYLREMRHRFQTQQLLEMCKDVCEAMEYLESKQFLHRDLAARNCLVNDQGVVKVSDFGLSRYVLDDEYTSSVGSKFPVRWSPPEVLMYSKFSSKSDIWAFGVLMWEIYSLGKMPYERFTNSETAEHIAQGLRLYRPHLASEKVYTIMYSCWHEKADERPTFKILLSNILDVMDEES

[4] = target: LCK (Homo sapiens, UniProt P06239); test: Inhibition of a panel of kinases, in vitro HotSpot kinase assay: LCK; settings: for IC50: 1 μM ATP, read-out: IC50 LCK; for LCK* IC50 relative to Btk IC50 value: fold relative to Btk IC50 value
Chain of LCK (P06239 whole entry): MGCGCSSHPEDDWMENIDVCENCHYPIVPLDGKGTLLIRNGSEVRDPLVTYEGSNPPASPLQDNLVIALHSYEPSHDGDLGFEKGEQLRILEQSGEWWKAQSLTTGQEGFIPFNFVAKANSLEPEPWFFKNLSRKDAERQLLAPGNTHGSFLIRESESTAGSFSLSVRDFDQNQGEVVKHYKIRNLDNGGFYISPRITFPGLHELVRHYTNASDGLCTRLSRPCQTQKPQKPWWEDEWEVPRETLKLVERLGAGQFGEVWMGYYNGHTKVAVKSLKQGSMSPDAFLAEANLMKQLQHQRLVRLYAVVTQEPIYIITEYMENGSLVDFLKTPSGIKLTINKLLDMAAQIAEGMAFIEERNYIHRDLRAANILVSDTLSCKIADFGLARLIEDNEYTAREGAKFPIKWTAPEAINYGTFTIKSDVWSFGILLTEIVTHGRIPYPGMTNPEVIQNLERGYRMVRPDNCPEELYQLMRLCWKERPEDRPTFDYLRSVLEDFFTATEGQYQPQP

[5] = target: EGFR (Homo sapiens, UniProt P00533); test: Inhibition of a panel of kinases, in vitro HotSpot kinase assay: EGFR; settings: for IC50: 1 μM ATP; for EGFR* IC50 relative to Btk IC50 value: fold relative to Btk IC50 value
Chain of EGFR (P00533 25-1210): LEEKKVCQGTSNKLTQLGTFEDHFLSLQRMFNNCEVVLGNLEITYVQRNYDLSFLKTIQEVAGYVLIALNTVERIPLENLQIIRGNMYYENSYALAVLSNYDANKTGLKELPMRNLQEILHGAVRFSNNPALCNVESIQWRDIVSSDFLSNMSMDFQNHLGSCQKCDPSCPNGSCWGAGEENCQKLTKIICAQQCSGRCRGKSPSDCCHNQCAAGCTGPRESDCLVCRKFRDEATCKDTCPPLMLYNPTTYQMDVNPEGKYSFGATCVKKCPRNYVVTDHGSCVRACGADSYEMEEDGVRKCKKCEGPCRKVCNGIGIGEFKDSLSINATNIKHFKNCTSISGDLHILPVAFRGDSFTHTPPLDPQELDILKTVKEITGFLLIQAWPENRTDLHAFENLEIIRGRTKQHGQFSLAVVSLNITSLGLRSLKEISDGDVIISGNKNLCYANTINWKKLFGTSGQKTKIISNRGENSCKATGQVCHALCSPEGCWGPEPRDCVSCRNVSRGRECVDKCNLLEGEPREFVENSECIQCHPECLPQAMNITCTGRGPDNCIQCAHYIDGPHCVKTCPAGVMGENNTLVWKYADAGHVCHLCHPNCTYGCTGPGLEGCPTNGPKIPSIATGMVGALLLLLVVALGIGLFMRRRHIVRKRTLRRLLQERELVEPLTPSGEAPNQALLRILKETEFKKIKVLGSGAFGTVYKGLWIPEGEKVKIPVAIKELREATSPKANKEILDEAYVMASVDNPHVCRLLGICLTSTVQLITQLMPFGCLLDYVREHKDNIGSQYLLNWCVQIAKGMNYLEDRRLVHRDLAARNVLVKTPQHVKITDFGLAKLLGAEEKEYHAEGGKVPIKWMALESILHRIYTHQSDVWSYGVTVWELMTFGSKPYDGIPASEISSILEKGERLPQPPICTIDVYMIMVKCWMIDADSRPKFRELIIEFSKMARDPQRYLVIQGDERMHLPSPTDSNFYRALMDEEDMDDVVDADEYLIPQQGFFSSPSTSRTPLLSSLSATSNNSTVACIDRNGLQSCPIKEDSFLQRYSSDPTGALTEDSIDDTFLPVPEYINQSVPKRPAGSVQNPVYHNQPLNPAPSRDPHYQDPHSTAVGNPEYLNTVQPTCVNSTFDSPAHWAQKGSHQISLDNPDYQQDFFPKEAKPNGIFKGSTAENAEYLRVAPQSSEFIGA
Description: as §1

[6] = Table 13, A compounds, read-out: IC50 BTK-WT
[7] = Table 15, C compounds, read-out: IC50 BTK-WT

| Compound | IC50 ([1]; Table 13, A compounds) | IC50 ([2]; Table 13, A compounds) | IC50 [3, 6] | IC50 ([4]; Table 13, A compounds) | IC50 ([5]; Table 13, A compounds) | TEC* IC50 relative to Btk IC50 value [1] | SRC* IC50 relative to Btk IC50 value [2] | IC50 ([3]; read-out: BTK-WT IC50) | LCK* IC50 relative to Btk IC50 value [4] | EGFR* IC50 relative to Btk IC50 value [5] | also measured |
| --- | --- | --- | --- | --- | --- | --- | --- | --- | --- | --- | --- |
| C[C@@H]1[C@H](NC(=O)N(C)C)CCCN1c1cnc(C(N)=O)c(Nc2ccc(C(=O)N3CCN(C)CC3)cc2)n1 [Example A-98, 5-[(2R,3R)-3-[(dimethylcarbamoyl)amino]-2-methylpiperidin-1-yl]-3-{[4-(4-methylpiperazine-1-carbonyl)phenyl]amino}pyrazine-2-carboxamide] | 100 to 1000 nM | 100 to 1000 nM | ≤ 10 nM | 100 to 1000 nM | 1000 to 10000 nM | – | – | – | – | – | – |
| CN1CCN(c2ccc(Nc3nc(N4CCC[C@@H](n5ccc6cc(C7CC7)ccc6c5=O)C4)cnc3C(N)=O)cc2)CC1 [Example A-99, 5-[(3R)-3-(6-cyclo-propyl-1-oxo-1,2-dihydroisoquinolin-2-yl)piperidin-1-yl]-3-{[4-(4-methylpiperazin-1-yl)phenyl]amino}pyrazine-2-carboxamide] | 10 to 100 nM | 100 to 1000 nM | ≤ 10 nM | 100 to 1000 nM | > 10000 nM | – | – | – | – | – | – |
| C[C@@H]1[C@H](NC(=O)N(C)C)CCCN1c1cnc(C(N)=O)c(Nc2ccc(N3CCN(C)CC3)cc2)n1 [Example A-100, 5-[(2R,3R)-3-[(dimethylcarbamoyl)amino]-2-methylpiperidin-1-yl]-3-{[4-(4-methylpiperazin-1-yl)phenyl]amino}pyrazine-2-carboxamide] | 100 to 1000 nM | 10 to 100 nM | ≤ 10 nM | 100 to 1000 nM | 100 to 1000 nM | – | – | – | – | – | – |
| Cc1c(Nc2nc(N3CCC[C@@H](NC(=O)c4ccc(C5CC5)cc4)[C@H]3C)cnc2C(N)=O)cnn1C [Example A-191, 5-((2R,3)R-3-(4-cyclopropylbenzamido)-2-methylpiperidin-1-yl)-3-(1,5-dimethyl-1H-pyrazol-4-ylamino)pyrazine-2-carboxamide] | 1000 to 10000 nM | 1000 to 10000 nM | 10 to 100 nM | 1000 to 10000 nM | 1000 to 10000 nM | – | – | – | – | – | – |
| Cc1nn(C)cc1Nc1nc(N2CCC[C@@H](NC(=O)c3ccc(C4CC4)cc3)[C@H]2C)cnc1C(N)=O [Example A-192, 5-((2R,3R)-3-(4-cyclopropylbenzamido)-2-methylpiperidin-1-yl)-3-(1,3-dimethyl-1H-pyrazol-4-ylamino)pyrazine-2-carboxamide] | 1000 to 10000 nM | > 10000 nM | 10 to 100 nM | > 10000 nM | 1000 to 10000 nM | – | – | – | – | – | – |
| C[C@@H]1[C@H](NC(=O)c2cc3c(n2C)CC(C)(C)C3)CCCN1c1cnc(C(N)=O)c(Nc2cnn(C)c2)n1 [Example A-193, N-((2R,3R)-1-(5-carbamoyl-6-(1-methyl-1H-pyrazol-4-ylamino)pyrazin-2-yl)-2-methylpiperidin-3-yl)-1,5,5-trimethyl-1,4,5,6-tetrahydrocyclo-penta[b]pyrrole-2-carboxamide] | 10 to 100 nM | 100 to 1000 nM | ≤ 10 nM | 100 to 1000 nM | 100 to 1000 nM | – | – | – | – | – | – |
| C[C@@H]1[C@H](NC(=O)c2ccc(C3CC3)cc2)CCCN1c1cnc(C(N)=O)c(Nc2cnn(C(F)F)c2)n1 [Example A-198, 5-[(2R,3R)-3-(4-cyclopropylbenzamido)-2-methylpiperidin-1-yl]-3-{[1-(difluoromethyl)-1H-pyrazol-4-yl]amino}pyrazine-2-carboxamide] | – | – | – | – | – | 3x | 69x | < 10 nM | 112x | 1276x | – |
| C[C@@H]1[C@H](NC(=O)c2ccc(C(C)(C)O)cc2)CCCN1c1cnc(C(N)=O)c(Nc2cnn(C)c2)n1 [Example A-200, 5-((2R,3R)-3-(4-(2-hydroxypropan-2-yl)benzamido)-2-methyl-piperidin-1-yl)-3-(1-methyl-1H-pyrazol-4-yl-amino)pyrazine-2-carboxamide] | – | – | – | – | – | 3x | 40x | < 10 nM | 88x | 380x | – |
| C[C@@H]1[C@H](NC(=O)c2ccc(C3CC3)cc2)CCCN1c1nnc(C(N)=O)c(Nc2cnn(C)c2)n1 [Example A-201, 3-[(2R,3R)-3-(4-cyclopropylbenzamido)-2-methylpiperidin-1-yl]-5-[(1-methyl-1H-pyrazol-4-yl)amino]-1,2,4-triazine-6-carboxamide] | – | – | – | – | – | 8x | 47x | < 10 nM | 49x | 2962x | – |
| Cn1cc(Nc2nc(N3CCC[C@@H](NC(=O)c4ccc(C5CC5)cc4)C3)nnc2C(N)=O)cn1 [Example A-202, 3-[(3R)-3-(4-cyclopropylbenzamido)piper-idin-1-yl]-5-[(1-methyl-1H-pyrazol-4-yl)amino]-1,2,4-triazine-6-carboxamide] | – | – | – | – | – | 5x | 159x | < 10 nM | 107x | 5208x | – |
| C[C@@H]1[C@H](NC(=O)c2ccc(C(C)(C)C)cc2)CCCN1c1cnc(C(N)=O)c(Nc2cnn(C)c2)n1 [Example A-203, 5-((2R,3R)-3-(4-tert-butylbenzamido)-2-methylpiperidin-1-yl)-3-(1-methyl-1H-pyrazol-4-ylamino)pyrazine-2-carboxamide] | – | – | – | – | – | 8x | 98x | < 10 nM | 684x | 3304x | – |
| C[C@@H]1[C@H](NC(=O)c2ccc(C3CC3)cc2)CCCN1c1cnc(C(N)=O)c(Nc2cnn(C3CC3)c2)n1 [Example A-205, 3-[(1-cyclopropyl-1H-pyrazol-4-yl)amino]-5-[(2R,3R)-3-(4-cyclopropylbenzamido)-2-methylpiperidin-1-yl]pyrazine-2-carboxamide] | – | – | – | – | – | 3x | 40x | < 10 nM | 102x | 730x | – |
| C[C@@H]1[C@H](NC(=O)c2ccc(C3COC3)cc2)CCCN1c1cnc(C(N)=O)c(Nc2cnn(C)c2)n1 [Example A-206, 3-(1-methyl-1H-pyrazol-4-ylamino)-5-((2R,3R)-2-methyl-3-(4-(oxetan-3-yl)benzamido)piperidin-1-yl)pyrazine-2-carboxamide] | – | – | – | – | – | 1x | 33x | < 10 nM | 63x | 896x | – |
| C=CC(=O)N1CCC[C@@H](Nc2nnc(C(N)=O)c(Nc3ccc(C(C)(C)C)cc3)n2)C1 [Example C-40, (R)-3-(1-acryloylpiperidin-3-ylamino)-5-(4-tert-butylphenylamino)-1,2,4-triazine-6-carboxamide] | – | – | – | – | – | – | – | – | – | – | IC50 ([1]; Table 15, C compounds): ≤ 10 nM; IC50 [3, 7]: ≤ 10 nM; IC50 ([4]; Table 15, C compounds): 100 to 1000 nM; IC50 ([5]; Table 15, C compounds): ≤ 10 nM |
| C=CC(=O)N1CC[C@@H](N(C)c2nnc(C(N)=O)c(Nc3ccc(C(C)C)cc3)n2)C1 [Example C-41, (R)-3-((1-acryloylpyrrolidin-3-yl)(methyl)amino)-5-(4-isopropylphenylamino)-1,2,4-triazine-6-carboxamide] | – | – | – | – | – | – | – | – | – | – | IC50 ([1]; Table 15, C compounds): ≤ 10 nM; IC50 ([2]; Table 15, C compounds): 10 to 100 nM; IC50 [3, 7]: ≤ 10 nM; IC50 ([4]; Table 15, C compounds): 1000 to 10000 nM; IC50 ([5]; Table 15, C compounds): ≤ 10 nM |
| C=CC(=O)N1CCC[C@@H](N(C)c2cnc(C(N)=O)c(Nc3ccc(C(C)C)cc3)n2)C1 [Example C-42, (R)-5-((1-acryloylpiperidin-3-yl)(methyl)amino)-3-(4-isopropylphenylamino) pyrazine-2-carboxamide] | – | – | – | – | – | – | – | – | – | – | IC50 ([1]; Table 15, C compounds): ≤ 10 nM; IC50 ([2]; Table 15, C compounds): 100 to 1000 nM; IC50 [3, 7]: ≤ 10 nM; IC50 ([4]; Table 15, C compounds): 1000 to 10000 nM |
| C=CC(=O)N1CCC[C@@H](N(C)c2cnc(C(N)=O)c(Nc3ccc(C4(C)CCN(C5CCCC5)CC4)cc3)n2)C1 [Example C-44, (R)-5-((1-acryloylpiperidin-3-yl)(methyl)amino)-3-(4-(1-cyclopentyl-4-methylpiperidin-4-yl)phenylamino) pyrazine-2-carboxamide] | – | – | – | – | – | – | – | – | – | – | IC50 ([1]; Table 15, C compounds): ≤ 10 nM; IC50 ([2]; Table 15, C compounds): ≤ 10 nM; IC50 [3, 7]: ≤ 10 nM; IC50 ([4]; Table 15, C compounds): < 10 nM; IC50 ([5]; Table 15, C compounds): ≤ 10 nM |
| C=CC(=O)N1CCC[C@@H](Nc2nnc(C(N)=O)c(Nc3cc(C)ns3)n2)C1 [Example C-56, (R)-3-(1-acryloylpiperidin-3-ylamino)-5-(3-methylisothiazol-5-ylamino)-1,2,4-triazine-6-carboxamide] | – | – | – | – | – | – | – | – | – | – | IC50 ([1]; Table 15, C compounds): ≤ 10 nM; IC50 ([2]; Table 15, C compounds): 10 to 100 nM; IC50 [3, 7]: ≤ 10 nM; IC50 ([4]; Table 15, C compounds): 10 to 100 nM; IC50 ([5]; Table 15, C compounds): ≤ 10 nM |
